Where “and” joins values, the source holds several entries; their conditions need not be identical. Identical values can stand only once.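 Test compounds were applied to cells in 96-well plates for 48 hours at 5 doses. Abbreviation: GI50, concentration required for 50% inhibition of growth. The concentration for full growth arrest is given as TGI.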
Columns and labels:
Assay in all cases: inhibition of tumour cell growth, NCI panel, 48 h
HOP-18 NSCLC = tested on: HOP-18 NSCLC
DMS 114 small cell lung = tested on: DMS 114 small cell lung
M19-MEL melanoma = tested on: M19-MEL melanoma
DMS 273 small cell lung = tested on: DMS 273 small cell lung
DLD-1 colon = tested on: DLD-1 colon
KM20L2 colon = tested on: KM20L2 colon
XF 498 CNS = tested on: XF 498 CNS
RXF-631 renal = tested on: RXF-631 renal
MDA-N = tested on: MDA-N

| Structure (SMILES) | TGI (HOP-18 NSCLC) | TGI (DMS 114 small cell lung) | TGI (M19-MEL melanoma) | TGI (DMS 273 small cell lung) | TGI (DLD-1 colon) | TGI (KM20L2 colon) | TGI (XF 498 CNS) | TGI (RXF-631 renal) | GI50 (MDA-N) | TGI (MDA-N) | GI50 (HOP-18 NSCLC) | GI50 (DMS 114 small cell lung) | GI50 (DMS 273 small cell lung) | GI50 (DLD-1 colon) | GI50 (KM20L2 colon) |
| --- | --- | --- | --- | --- | --- | --- | --- | --- | --- | --- | --- | --- | --- | --- | --- |
| CC1=C(C(=O)Nc2ccccc2)C(c2cccc3ccccc23)C(C(=O)Nc2ccccc2)=C(C)N1 | 46.8 µM | 55.7 µM | 34.5 µM | 40.9 µM | > 100 µM | 36.2 µM |  |  |  |  |  |  |  |  |  |
| CN(C)C(=N/O)/C(=N\O)N(C)C | > 100 µM | > 100 µM | > 100 µM | > 100 µM | > 100 µM | > 100 µM | > 100 µM | > 100 µM |  |  |  |  |  |  |  |
| O=C(/C=C/c1ccccc1F)c1ccc(Cl)c(Cl)c1 | > 100 µM | 55.5 µM | 58.1 µM | > 100 µM | > 62.9 µM | > 100 µM | 77 µM | > 100 µM |  |  |  |  |  |  |  |
| O=C1CC(c2cccc(F)c2)Nc2cc3c(cc21)OCO3 (stereo not given) |  |  |  |  |  |  |  |  | < 0.01 µM | 0.0377 µM and < 0.01 µM |  |  |  |  |  |
| CC(=O)c1c2c(cc3c1CC1(C3)Cc3cc4c(c(C(C)=O)c3C1)CCC4)CCC2 | > 100 µM | > 100 µM | > 100 µM |  | > 100 µM |  | > 100 µM | > 100 µM |  |  |  |  |  |  |  |
| N#C/C(=C/c1ccc2c(c1)OCO2)C(=O)c1ccccc1 | > 100 µM |  | > 100 µM |  | > 100 µM | > 100 µM | > 100 µM |  |  |  |  |  |  |  |  |
| N/C(=N\N=C\c1ccc(C(F)(F)F)cc1)NO |  | > 100 µM | > 100 µM | 59.9 µM | > 100 µM |  | 51 µM |  |  |  |  |  |  |  |  |
| CCc1cccc(C)c1NC(=O)C(=O)CC(=O)c1ccc(Cl)s1 | > 100 µM |  | > 100 µM |  | > 100 µM | > 100 µM |  | > 100 µM |  |  |  |  |  |  |  |
| Nc1ccc(C(=O)N/C(=C\c2cccc([N+](=O)[O-])c2)c2nc3[nH]c(=S)[nH]c(=O)c3[nH]2)cc1 |  | > 100 µM | > 100 µM |  | > 100 µM | > 100 µM | 34.3 µM | > 100 µM |  | > 100 µM |  |  |  |  |  |
| COC(=O)N/N=C(\C)c1c(O)cc(C)oc1=O |  |  |  |  | > 100 µM | > 100 µM |  | > 100 µM |  |  |  |  |  |  |  |
| c1ccc(C2OC3(CCC[C@H]4C[C@H]43)O[C@H]2c2ccccc2)cc1 (stereo not given in full) |  | 74.9 µM | 84.8 µM | > 100 µM | > 100 µM | > 100 µM | 43.8 µM | > 100 µM |  |  |  |  |  |  |  |
| CC(=O)[O-].Cn1ccnc1CNCc1nccn1C.[Cu+2].[O-][Cl+3]([O-])([O-])[O-] | > 100 µM | > 100 µM |  | > 100 µM | > 100 µM | > 100 µM |  |  |  |  | > 100 µM | > 100 µM | > 100 µM | > 100 µM | > 100 µM |
| CC1=C(/C=C/C(C)=C/C2CC(N(C)C)=CC(=O)O2)C(C)(C)CCC1 (stereo not given) | 26.5 µM | 23.8 µM | 29.3 µM | 27.1 µM | 32.8 µM |  | 25.1 µM | 27.8 µM |  |  |  |  |  |  |  |
| O=C1C(c2ccc(Br)cc2)=[N+]([O-])c2ccccc21 | 27.3 µM | 12.2 µM | 22.3 µM |  | 25 µM | 38.5 µM | 31.3 µM |  |  |  |  |  |  |  |  |
| Cc1cc2c(C)n(Cc3ccccc3Cl)nc2c(C(=O)O)c1C | > 100 µM |  | > 100 µM | > 100 µM | > 100 µM | > 100 µM | > 100 µM |  |  |  |  |  |  |  |  |
| Cc1ccc(S(=O)(=O)SC(C)(C)C)cc1 | > 100 µM | 35.6 µM | > 100 µM | 47.5 µM | 35.3 µM |  | 32.1 µM | > 100 µM |  |  |  |  |  |  |  |
| O=[N+]([O-])C(/C=N/Nc1ccccc1)/C=N/Nc1ccccc1 | > 100 µM | > 100 µM | > 100 µM | > 100 µM | > 100 µM | > 100 µM | > 100 µM |  |  |  |  |  |  |  |  |
| O=C1/C=C(/c2ccc(O)cc2)[C@@H](O)Cc2ccc(O)cc2O1 |  | > 100 µM | > 100 µM |  | > 100 µM | > 100 µM |  | > 100 µM |  |  |  |  |  |  |  |
